Measurements: patent US20090270476A1, “PHARMACEUTICAL COMPOSITION FOR TREATMENT OR PREVENTION OF NEPHRITIS AND MANUFACTURING METHOD THEREOF” (priority 2005, published 2009)
“Also recorded” adds a separate entry of the source.

Tests used:
Type in all cases: in vivo, Wister rats
nephritis model rat [1] = assay: Observation of PAS-stained kidney histologic sections and nephritis score
Protocol: Section samples were prepared from three animals selected according to the variation of urinary protein in respective groups. Periodic acid Schiff (PAS) staining was conducted on the kidney histologic section.
A procedure for PAS staining was; slicing a sampler washing the sample with water after paraffin-removal, soaking the sample in a solution of 1% periodic acid for 10 minutes, and washing again the sample with water; soaking the histologic section prepared in Schiff reagent for 10 to 15 minutes, washing the sample in a staining bat three times for 3 minutes, total for 9 minutes, and washing the sample with water; and then staining the sample with hematoxylin for 1 minute, washing the sample with warm water for 10 minutes, dehydrating and penetrating the sample and then sealing the sample.
Observation of the histologic sample was conducted on renal glomerulus using a microscope with 200× magnifications. The bar in Figs is corresponding to 50 μm.
Fifty (50) glomeruli every three samples of each group were ranked according to damaged levels. The ranks were from normal (rank 1) to the most progressed damage (rank 5) and five grades according to damages were given to provide a score. The average of the scores was decided as the score of the sample (nephritis score).

nephritis model rat [2] = assay: Effects of orniplabin on urinary protein, lipid peroxide in blood and organomegaly in nephritis model rat
Protocol: Three-week-old male Wister rats (Charles River) were raised for 6 days with pellet diet (CE-2, Nihon Crea) and then raised with the 20% casein diet for 5 days to be subjected to the experiment. The animals were raised at approximately 22° C., with relative humidity […] under lighting from 8:00 to 20:00.
(§1) 0.6 mL of Anti-rat-glomerular basement membrance rabbit serum was administered into the caudal vein. Next day rabbit γ-globulin (Sigma), and 8 mg/0.2 mL Freund's complete adjuvant (Wako Junyaku) were subcutaneously injected into hinder leg's footpad to cause nephritis (nephritis model rat).
Since anti-serum was injected, the body weight and feed intake were measured every morning and urinary proteins of 24-hour urine was measured every other day, specifically urine was collected in a flask from 9 AM of the day before to 9 AM of the day and the measurement was carried out using commercial protein measurement kit (Bio-Rad, Protein Assay, Bio-Rad). (Refer to Biosci. Biotechnol. Biochem., 65, 1155-1162 (2001))
(§2) The urinary proteins were measured three days after the injection of anti-serum and the rats were grouped according to the measurement values. An orniplabin solution equivalent to 5 mg/Kg concentration was intrapenitoneally injected everyday to the orniplabin administration group since then. Nothing was injected to the control group. Rats of respective groups were dissected to remove blood, liver and kidneys 14 days after nephritis was induced, and weights of the removed materials were measured. Further lipid peroxides of a part of blood obtained were measured using a commercial measurement kit (Wako Junyaku). The normal group represents the untreated group, the control group represents—the nephritis-induced group and SMTP group represents the orniplabin-injected group. Student's t-test of significant difference between two groups was carried out as the level significance is 0.05. Tukey's multiple comparison method was used for the testing of significance between three groups. The data associated with the amount of urinary proteins and the weight of organs are treated with the scale per 100 g of body weight as a benchmark.

nephritis model rat [3] = assay: Effects of orniplabin administration on plasma components in nephritis model rat
Protocol: as §1, §2
Further effects of orniplabin administration on plasma components were investigated by measuring a variety of concentrations of plasma component, (Normal group, n=6; control group, n=10; and orniplabin-injected group, n=6) The following plasma components were measured; lactate dehydrogenase (LD; PureAuto S LD), […] amino transferase (AST AutoSera S AST), alanine aminotransferase (ALT: AutoSera S ALT), creatine phosphate kinase (CPK; PureAuto S CK), alkaline phosphatase (ALP; AutoSera S ALP), γ-glutamyl transpeptidase (γ-GTP; PureAuto S γ-GT), total bilirubin (BIL: AutoSera BIL-2), glucose (GLU; PureAuto S GLU-R), triglyceride (TG; AutoSera S TG-N), total cholesterol (T-CHO; Choletest CHO), phospholipid (PL; PureAuto S PL), total protein (TP; AutoSera TP), urea nitrogen (UN; PureAuto S UN), albumin (ALB; AutoSera ALB), calcium (CA; AutoSera CA), inorganic phosphoric acid (IP; Clini mate IP-2), (Daiichi Chemical), creatinine (CRE-S; AccursAuto CRE, Sinotest), acetoacetic acid (ACAC; Ketone Test A Sanwa liquid, Sanwa Science Laboratories), 3-hydroxy butyric acid (OHBA; Ketone Test B Sanwa liquidA Sanwa Science Laboratories), free fafty acids (NEFA; AutoSera R NEFA (Daiichi Chemical) and HDL cholesterol (HDL; Cholest-R N HDL (Daichi Chemical) were used to measure. Further Hitachi Amino acid automatic analyzer 7180 (Hitachi) was used.
The comparison results between the control group and the orniplabin-injected group, and the normal group of which average value is as 1 are shown in FIG. 5 to FIG. 8.

[4] = renal glomerulus, PAS staining, orniplabin-injected group
[5] = 5 mg/Kg intraperitoneal everyday
[6] = 5 mg/Kg intraperitoneal everyday, 14 days after nephritis induction, weight per 100 g body weight
[7] = decrease by induction of nephritis
[8] = orniplabin-injected group vs control group

SMILES: CC(C)=CCC/C(C)=C/CC[C@@]1(C)Oc2c(c(O)cc3c2CN(CCC[C@@H](C(=O)O)N2Cc4c(cc(O)c5c4O[C@](C)(CC/C=C(\C)CCC=C(C)C)[C@H](O)C5)C2=O)C3=O)C[C@H]1O [orniplabin]
- nephritis score (nephritis model rat [1]; 50 glomeruli per sample, three samples, rank 1 (normal) to rank 5 (most progressed damage), control group 3.80±0.13): 2.77±0.04
- abnormal histologic hypertrophy of proximal convoluted tubule tissue (nephritis model rat [1]; PAS staining, orniplabin-injected group): not observed
- crescent formation (nephritis model rat [1]; [4]): low level crescent formation
- mesangium proliferation (nephritis model rat [1]; [4]): almost no mesangium proliferation
- food intake (nephritis model rat [2]; [5]): without affecting
- increase of body weight (nephritis model rat [2]; [5]): without affecting
- urinary proteins (nephritis model rat [2]; 5 mg/Kg intraperitoneal everyday from day 3, 24-hour urine, vs control group): decreased
- lipid peroxides in serum (nephritis model rat [2]; 5 mg/Kg intraperitoneal everyday, 14 days after nephritis induction, vs control group): decreased
- hypertrophy of kidneys (nephritis model rat [2]; [6]): suppressed
- hypertrophy of liver (nephritis model rat [2]; [6]): suppressed
- concentration of BIL in plasma (nephritis model rat [3]; [7]): prevented or these concentrations were recovered
- concentration of CA in plasma (nephritis model rat [3]; [7]): prevented or these concentrations were recovered
- concentration of GLU in plasma (nephritis model rat [3]; [7]): prevented or these concentrations were recovered
- concentration of IP in plasma (nephritis model rat [3]; [7]): prevented or these concentrations were recovered
- concentration of TP (total proteins) in plasma (nephritis model rat [3]; orniplabin-injected group): recovered to the normal level
- concentration of ACAC in plasma (nephritis model rat [3]; [8]): lower than that of the control group
- concentration of ALB in plasma (nephritis model rat [3]; [8]): almost not different
- concentration of ALP in plasma (nephritis model rat [3]; [8]): not significantly different
- concentration of ALT in plasma (nephritis model rat [3]; [8]): not significantly different
- concentration of AST in plasma (nephritis model rat [3]; [8]): not significantly different
- concentration of CRE-S in plasma (nephritis model rat [3]; [8]): almost not different
- concentration of HDL in plasma (nephritis model rat [3]; [8]): in decreasing trend
- concentration of LD in plasma (nephritis model rat [3]; [8]): not significantly different
- concentration of OHBA in plasma (nephritis model rat [3]; [8]): prevented or these concentrations were recovered; also recorded: higher than that of the control group
- concentration of OK in plasma (nephritis model rat [3]; [8]): not significantly different
- concentration of PL in plasma (nephritis model rat [3]; [8]): in decreasing trend
- concentration of T-CHO in plasma (nephritis model rat [3]; [8]): in decreasing trend
- concentration of TG in plasma (nephritis model rat [3]; [8]): significantly decreased
- concentration of UN in plasma (nephritis model rat [3]; [8]): almost not different
- concentration of γ-GTP in plasma (nephritis model rat [3]; [8]): not significantly different
